Like-named read-outs stand apart in the source and are kept apart here.
Columns and labels:
Ad5 hexon protein = experiment: FACS analysis of Ad5 hexon protein expression in A549 cells; type: cell-based, human adenovirus; details: 24 h
Protocol: (§1) FIG. 4. A. Binding of ^35S-labelled Ad5 to A549 cells in the presence of A02. Error bars represent the standard deviation of the means from three independent duplicate experiments. B. Flowcytometry assay detecting Ad5 (grey bars) and Ad11 (checkered bars) hexon protein following 24 h incubation with virus and compound A02. Error bars represent the standard deviation of the means from two independent duplicate experiments.
(§2) A binding assay using isotope-labeled virions was used to address whether the compound would prevent viral adhesion to host cells. At 15 μM, compound A02 has no effect on Ad5 binding to the surface of A549 cells (FIG. 4A). To further verify inhibition of viral replication, the effect on the expression of the most abundant viral structural protein (hexon) in A549 cells was studied by FACS analysis.

Ad11p = experiment: Quantitative real-time PCR of adenovirus DNA replication in A549 cells (Ad11p); type: cell-based, human adenovirus
Protocol: Approximately 1×10^5 A549 cells were seeded in 24-well plates (Nunc) on the day before infection. On the day of infection, the cells in one well were counted to establish the amount of virions to be added. The growth medium was removed and compound and virus were added simultaneously to the cells in 700 μl DMEM with 0.75 g/l NaHCO3, 20 mM HEPES, 1×PEST, and 1% FBS. Compounds were added in concentrations ranging from 0.5 μM to 15 μM. The final concentration of DMSO was less than 1% in all samples. One pg of Ad virions was added per cell. The plate was incubated at 37° C. in 5% CO2 and 24 h after infection the cells were harvested, washed once, and resuspended in PBS. DNA was prepared from the samples using the QIAamp DNA Blood Mini Kit (QIAGEN, Solna, Sweden) according to the manufacturer's instructions. The design of primers and probes for analysis of various Ad types representing different adenovirus species with quantitative PCR has been described previously (Allard et al. 2001. Rapid typing of human adenoviruses by a general PCR combined with restriction endonuclease analysis. Journal Clinical Microbiology 39:498-505). Briefly, quantitative real-time PCR was carried out using a degenerate primer pair, Kadgen1 (forward)—Kadgen 2 (reverse) (5′-CWT ACA TGC ACA TCK CSG G-3′—SEQ ID NO:1, and 5′-CRC GGG CRA AYT GCA CCA G-3′—SEQ ID NO:2, respectively); DNA technology A/S, Aarhus, Denmark). This primer pair is specific for the conserved region of the Ad hexon gene and can detect all human Ads. Different FAM-TAMRA probes were used to quantitate Ads from different species: AdB1B2 (5′-6-FAM-AGGATGCTTCGGAGTACCTGAGTCCGG-TAMRA-3′—SEQ ID NO:3) for Ad11p (11) and AdC (5′-6-FAM-AGGACGCCTCGGAGTACCTGAGCCCCG-TAMRA-3′—SEQ ID NO:4) for Ad 5 (all from Applied Biosystems, Cheshire, UK). For Ads from species A, D, E and F the probe AdDF (5′-6-FAM-CCGGGCTCAGGTACTCCGAGGCGTCCT-3′—SEQ ID NO:5) was used (Applied Biosystems). Standard curves ranging from 5 to 5×10^5 genome copies were generated by serial dilution of known amounts of full-length Ad5 or Ad11 DNA. The Ad5 DNA standard was used for the AdDF probe system. […] The program for the real-time PCR was: 2 min at 50° C. to activate UNG, followed by amplification and quantitation (10 min at 95° C. and 40 cycles of 15 sec at 95° C., 1 min at 60° C.). […] Real-time PCR was performed in an ABI PRISM 7700 Sequence Detector (Applied Biosystems) and analyzed with Sequence Detector v1.7a software.

RCAd11pGFP vector = experiment: Screening assay: GFP expression from RCAd11pGFP vector in K562 cells; type: cell-based; details: Human adenovirus sp., K562, 24 h, read-out: 50% inhibitory concentration (IC50), inhibition of GFP expression
Description: The screening assay is based on GFP expression from the RCAd11pGFP vector in a K562 cell system. […] To be considered as a potential hit, the compound had to decrease the intensity of fluorescence by more than 80% and kill no more than 50% of the cells. […] None of the compounds selected for further study were autofluorescent.
To verify the hits and to exclude false positives, the compounds were serially diluted in 7 steps for dose-response analysis using the screening assay. […] Twenty-four compounds met these criteria. The distribution of fluorescence inhibition and cellular toxicity detected in the screening process of these 24 hits is summarized in FIG. 1. One of the most efficient and least toxic compounds was A02, 2-[[2-(benzoylamino)benzoyl]amino]-benzoic acid. This compound was evaluated further as a potential drug candidate.

Ad5 = experiment: microbe, parasite or virus in culture; type: cell-based, human adenovirus
Ad31 (A) = experiment: Quantitative real-time PCR of adenovirus DNA replication in A549 cells (Ad31); type: cell-based; details: Human adenovirus sp., read-out: % inhibition of DNA replication (SD)
Protocol: (§3) Approximately 1×10^5 A549 cells were seeded in 24-well plates (Nunc) on the day before infection. On the day of infection, the cells in one well were counted to establish the amount of virions to be added. The growth medium was removed and compound and virus were added simultaneously to the cells in 700 μl DMEM with 0.75 g/l NaHCO3, 20 mM HEPES, 1×PEST, and 1% FBS. Compounds were added in concentrations ranging from 0.5 μM to 15 μM. The final concentration of DMSO was less than 1% in all samples. One pg of Ad virions was added per cell. The plate was incubated at 37° C. in 5% CO2 and 24 h after infection the cells were harvested, washed once, and resuspended in PBS. […] The design of primers and probes for analysis of various Ad types representing different adenovirus species with quantitative PCR has been described previously (Allard et al. 2001. Rapid typing of human adenoviruses by a general PCR combined with restriction endonuclease analysis. Journal Clinical Microbiology 39:498-505). Briefly, quantitative real-time PCR was carried out using a degenerate primer pair, Kadgen1 (forward)—Kadgen 2 (reverse) (5′-CWT ACA TGC ACA TCK CSG G-3′—SEQ ID NO:1, and 5′-CRC GGG CRA AYT GCA CCA G-3′—SEQ ID NO:2, respectively); DNA technology A/S, Aarhus, Denmark). […] Real-time PCR was performed in an ABI PRISM 7700 Sequence Detector (Applied Biosystems) and analyzed with Sequence Detector v1.7a software.

Ad11p hexon protein = experiment: FACS analysis of Ad11p hexon protein expression in A549 cells; type: cell-based, human adenovirus; details: 24 h
Protocol: as §1, §2

Ad4 (E) = experiment: Quantitative real-time PCR of adenovirus DNA replication in A549 cells (Ad4); type: cell-based; details: Human adenovirus sp., read-out: % inhibition of DNA replication (SD)
Protocol: as §3

[1] = Human adenovirus sp., A549, read-out: % inhibition of DNA replication (SD)

`O=C(Nc1ccccc1C(=O)Nc1ccccc1C(=O)O)c1ccccc1` [Compound A02, 2-[[2-(Benzoylamino)benzoyl]amino]-benzoic acid] was tested, and the “expression of Ad5 hexon protein” value (Ad5 hexon protein) was “inhibited by compound A02 in a dose-dependent manner”, the “selectivity index (SI=CC50/IC50) for Ad11p” value (Ad11p) was 68 and the IC50 (Ad11p; Human adenovirus sp., 24 h, read-out: IC50 for Ad11p replication (QPCR)) was 2.9 µM. It also gave an inhibition at 5 µM (Ad11p; Human adenovirus sp., Ad11p (B2), 5 μM, read-out: % inhibition of DNA replication (SD)) of 79%, an inhibition at 15 µM (Ad11p; Human adenovirus sp., Ad11p (B2), 15 μM, read-out: % inhibition of DNA replication (SD)) of 79% and an IC50 (RCAd11pGFP vector) of 28.6 µM. For the same compound, the “effect on the replication of Ad5 (QPCR)” value (Ad5; A549 cells) was “significant inhibitory effect”, the “selectivity index (SI=CC50/IC50) for Ad5” value (Ad5; A549 cells) was 54 and the IC50 (Ad5; Human adenovirus sp., A549, 24 h, read-out: IC50 for Ad5 replication (QPCR)) was 3.7 µM. It also gave an inhibition at 5 µM (Ad5; [1]) of 72%, an inhibition at 15 µM (Ad5; [1]) of 86% and an EC50 (Ad5; unidentified adenovirus, A549) of 3.7 µM. The inhibition at 5 µM (Ad5; unidentified adenovirus, A549, read-out: % Inh. at 5 μM) was 89 ± 5%, the inhibition at 15 µM (Ad5; unidentified adenovirus, A549, read-out: % Inh. at 15 μM) was 96 ± 1% and the inhibition at 5 µM (Ad31 (A); 5 μM) was 86%. For the same compound, the inhibition at 15 µM (Ad31 (A); 15 μM) was 98%, the “expression of Ad11p hexon protein” value (Ad11p hexon protein) was “inhibited by compound A02 in a dose-dependent manner” and the inhibition at 5 µM (Ad4 (E); 5 μM) was 85%. For the same compound, the inhibition at 15 µM (Ad4 (E); 15 μM) was 96%.

— patent publication US8993622B2, “Antiviral compounds” (Eirium AB, priority 2010, dated 2015)
